Data published in patent publication US5439933A (priority 1993, dated 1995).
In brackets after ≈: the same amount, converted by molar mass. Like-named read-outs stand apart in the source and are kept apart here. Starred links: 1 amine or outer side, 2 acyl side, 3 side chain; linkers in the order of their positions; H or OH if unused. Positions of bridges follow the written chain, without caps; N, C: chain ends. Non-standard residues stand in square brackets, D forms with d. Residues, ends and D or L forms follow the SMILES beside them. Chains are numbered I, II in the order given. Actinocin(9to1) = Cc1c2oc3c(C)ccc(C(=O)[*:1])c3nc-2c(C(=O)[*:2])c(N)c1=O; NMeV = CN[C@H](C(=O)O)C(C)C; Sar = CNCC(=O)O

Columns and labels:
[1] = system: Human ovarian carcinoma cells (SKOV3); assay: cells; type: cell-based; conditions: SK-OV-3, Table 7, SKOV3, 48 hours, read-out: IC50 SKOV3
Protocol: Human ovarian carcinoma cells (SKOV3) and a subline made multi-drug resistant by slowly increasing vinblastine in the culture medium over the course of many passages (SKVLB) were grown in Earle's basal medium (BME) containing 10% fetal calf serum. The SKVLB cells were maintained in the presence of 1 µg/mL vinblastine. The multi-drug resistant cell line is resistant to adriamycin, vinblastine, actinomycin D, and colchicine.
Cell proliferation was estimated by measurement of protein content of the cultured cells, as described by Skehan et al. (1990). Cells were plated into 24-well plates at approximately 10% confluency in BME and were allowed to attach and recover for at least 24 hours. The cells were then treated with the scytophycins or appropriate control for 48 hours. After the incubation, the medium was removed from each well and cells fixed by addition of 10% (w/v) trichloroacetic acid (TCA) (4° C.). The cells were incubated at 4° C. for one hour and then washed five times with water to remove TCA. The TCA-fixed cells were then stained for 30 minutes with 0.4% (w/v) sulforhodamine B prepared in 1% acetic acid. Following the staining, the cell layers were washed four times with 1% acetic acid. The cell layer was dissolved in 10 mM unbuffered tris-hydroxymethylaminomethane base. Absorbance of the solution was determined at 564 nm. Antiproliferative activity is manifested as decreased production of cellular protein.

Sclerotium rofsii 2133 = assay: Antifungal agar dilution; type: cell-based; conditions: Sclerotium rofsii 2133
Protocol: (§1) The new scytophycins are also useful as antifungal agents. Antimicrobial activity was determined by the agar dilution method. Tolytoxin was dissolved in 95% ethanol for addition to cooled, molten agar. Nystatin was solubilized in DMSO and diluted in distilled water. Appropriate solvent controls were also prepared. Fungal cultures were grown on Saboraud dextrose agar. Assay plates were incubated for 48 hours post-inoculation. Yeasts and filamentous fungi were incubated at 25° C.
(§2) Activity was determined using the method described above for tolytoxin.

Saccharomyces cerevisae = assay: Antifungal agar dilution; type: cell-based; conditions: Saccharomyces cerevisae; for IC50: Table 9
Protocol: as §1, §2

[2] = system: Phytophthora nicotianae H729; assay: Antifungal agar dilution; type: cell-based; conditions: Phytophthora nicotianae H729
Protocol: as §1, §2

Candida albicans A26 = assay: Antifungal agar dilution; type: cell-based
Protocol: as §1, §2

[3] = system: Thielaviopsis paradoxa 1215; assay: Antifungal agar dilution; type: cell-based; conditions: Thielaviopsis paradoxa 1215; for IC50: Table 9
Protocol: as §1, §2

[4] = system: KB human epidermoid carcinoma cells; assay: Cell proliferation assay (cell counts), KB; type: cell-based; conditions: Table 6, KB, read-out: IC50 KB
Protocol: (§3) Tolytoxin and the other new scytophycin compounds are potent anticancer and antifungal agents. The cytotoxicity of tolytoxin and other new scytophycin compounds was determined using a cell proliferation assay, which tested the effect of the compounds on increases in cell numbers.
(§4) Cell lines were grown in plastic dishes (Falcon) in Eagle's basal medium supplemented with 5% newborn calf serum (KB), Fisher's medium supplemented with 10% horse serum (L1210), Dulbecco's modified Eagle's medium supplemented with 5% heat-inactivated fetal calf serum (LoVo), minimal essential medium supplemented with 2% heat-inactivated chicken serum (HEp-2), RPMI-1640 supplemented with 10% heat-inactivated fetal calf serum (T-47D, COLO-201) or 20% heat-inactivated fetal calf serum (HL-60, KATO-III), or McCoy's 5A supplemented with 10% heat-inactivated fetal calf serum (HBL-100). All cell culture media were supplemented with 50 μg/ml gentamycin sulfate. The cultures were incubated at 37° C. in a humidified atmosphere containing 5% carbon dioxide.
(§5) Cultures were exposed to graded concentrations of tolytoxin and reincubated for 72 hours in the presence of tolytoxin. Three dishes were used for each treatment. Cell numbers were determined by hemacytometer counts. The IC50 for each cell line was determined by plotting the logarithm of the tolytoxin concentration versus growth (cell number as a percentage of the control) of the treated cells.
(§6) The other new scytophycin compounds are also potent cytotoxins. For example, the IC50 of the scytophycins against KB human epidermoid carcinoma, LoVo human adenocarcinoma, and L1210 murine leukemia were determined using the cell proliferation assay described for tolytoxin.

[5] = system: SKVLB (multi-drug resistant subline of SKOV3); assay: cells; type: cell-based, Human; conditions: for IC50: Homo sapiens, 48 hours, read-out: IC50 SKVLB; for IC50 / Fold-Resistance: Table 7; for IC50 / resistance of the multi-drug resistant cell line: SKVLB; for Fold-Resistance: SKVLB vs SKOV3, 2880 min
[6] = system: LoVo human adenocarcinoma cells; assay: Cell proliferation assay (cell counts), LoVo; type: cell-based; conditions: Table 6, read-out: IC50 LoVo
Protocol: as §3, §4, §5, §6

[7] = system: L1210 murine leukemia cells; assay: Cell proliferation assay (cell counts), L1210; type: cell-based; conditions: Mus musculus; Table 6; L1210; read-out: IC50 L1210
Protocol: as §3, §4, §5, §6

cellular sugar uptake = conditions: side effect; cited from earlier work
actin microfilaments = conditions: by binding to the end unit of growing actin microfilaments; cited from earlier work
[8] = system: Colletotrichum coccodes 1809; assay: Antifungal agar dilution; type: cell-based; conditions: Table 8; Colletotrichum coccodes 1809; 48 hours
Protocol: as §1

[9] = system: Trichophyton mentagrophytes A23; assay: Antifungal agar dilution; type: cell-based; conditions: Table 8; Trichophyton mentagrophytes A23; 48 hours
Protocol: as §1

Bipolaris incurvata 2118 = assay: Antifungal agar dilution; type: cell-based; conditions: Table 8; Bipolaris incurvata 2118; 48 hours
Protocol: as §1

Aspergillus oryzae = assay: Antifungal agar dilution; type: cell-based; conditions: Table 8, 48 hours
Protocol: as §1

[10] = system: Alternaria alternata 1715; assay: Antifungal agar dilution; type: cell-based; conditions: Table 8; Alternaria alternata 1715; 48 hours
Protocol: as §1

Rhizoctonia solani 1165 = assay: Antifungal agar dilution; type: cell-based; conditions: Table 8; Rhizoctonia solani 1165; 48 hours
Protocol: as §1

[11] = system: Phyllosticta capitalensis 689-5; assay: Antifungal agar dilution; type: cell-based; conditions: Table 8; Phyllosticta capitalensis 689-5; 48 hours
Protocol: as §1

Penicillium notatum = assay: Antifungal agar dilution; type: cell-based; conditions: Table 8; Penicillium notatum; 48 hours
Protocol: as §1

[12] = system: Calonectria critalarae 1809; assay: Antifungal agar dilution; type: cell-based; conditions: Table 8; Calonectria critalarae 1809; 48 hours
Protocol: as §1

[13] = Table 9, Candida albicans A26, read-out: IC50

| Structure (SMILES) | IC50 [1] | MIC (Sclerotium rofsii 2133; Table 9, read-out: IC50) | IC50 (Saccharomyces cerevisae) | MIC ([2]; Table 9, read-out: IC50) | MIC (Candida albicans A26; [13]) | IC50 [3] | IC50 [4] | IC50 [5] | Fold-Resistance [5] | IC50 [6] | IC50 [7] | resistance of the multi-drug resistant cell line [5] | further results |
| --- | --- | --- | --- | --- | --- | --- | --- | --- | --- | --- | --- | --- | --- |
| COC1CC2C=CCC(CC(OC)C(CO)C(OC)CC(OC)C(C)C(C(C)C(O)C(C)CCC(=O)C(C)C(OC)C(C)/C=C/N(C)C=O)OC(=O)/C=C/C(C)=C/C1O)O2 (centres unmarked) [6-Hydroxy-7-O-methylscytophycin E, 6-hydroxy-7-O-methylscytophycin E] | 0.1 µM | 16 nM (≈ 13.6 ng/mL) | 0.064 µM | 16 nM (≈ 13.6 ng/mL) | 64 nM (≈ 54.5 ng/mL) | 0.032 µM | 0.012 µM | 0.3 µM | 3 | 0.008 µM | 0.0066 µM | – | – |
| COC1CC(OC)C2(CO2)C(OC)CC2CC=CC(CC(O)C(O)/C=C(C)/C=C/C(=O)OC(C(C)C(O)C(C)CCC(=O)C(C)C(OC)C(C)/C=C/N(C)C=O)C1C)O2 (centres unmarked) [6-Hydroxyscytophycin B] | 0.05 µM | 16 nM (≈ 13.4 ng/mL) | 0.1 µM | 64 nM (≈ 53.5 ng/mL) | 200 nM (≈ 167 ng/mL) | 0.032 µM | 0.0036 µM | 0.15 µM | 3 | 0.0082 µM | 0.011 µM | – | – |
| COC1CC2CC=CC(CC(O)C/C=C(C)/C=C/C(=O)OC(C(C)C(O)C(C)CCC(=O)C(C)C(OC)C(C)/C=C/N(C)C=O)C(C)C(O)CC(OC)C1C)O2 (centres unmarked) [19-O-demethylscytophycin C] | 0.025 µM | 4 nM (≈ 3.17 ng/mL) | 0.064 µM | 8 nM (≈ 6.34 ng/mL) | 128 nM (≈ 101 ng/mL) | 0.016 µM | 0.0092 µM | 0.025 µM | 1 | 0.0029 µM | 0.0125 µM | – | – |
| COc1cccc2c1C(=O)c1c(O)c3c(c(O)c1C2=O)C[C@@](O)(C(=O)CO)C[C@@H]3O[C@H]1C[C@H](N)[C@H](O)[C@H](C)O1 [Adriamycin] | 0.4 µM | – | – | – | – | – | – | > 100 µM | > 250 | – | – | resistant | – |
| C=C1C(C)C2C(Cc3ccccc3)NC(=O)C23OC(=O)C=CC(O)CCCC(C)CC=CC3C1O (centres unmarked) [Cytochalasin B] | 5 µM | – | – | – | – | – | – | 30 µM | 6 | – | – | – | cellular sugar uptake (cellular sugar uptake): inhibits cellular sugar uptake; microfilament formation (actin microfilaments): inhibit microfilament formation |
| C[C@@H]1[C@H](O)[C@@H](C)/C=C/C=C/CC/C=C/C=C/C=C/C=C/C(O[C@H]2O[C@H](C)[C@@H](O)[C@H](N)[C@@H]2O)CC2O[C@](O)(CC(O)C(O)CCC(O)CC(O)CC(O)CC(=O)O[C@H]1C)CC(O)C2C(=O)O (some centres unmarked) [Nystatin, reference compound] | – | – | – | – | – | – | – | – | – | – | – | – | MIC (Sclerotium rofsii 2133; Table 8, 48 hours): 0.125 nM (≈ 0.116 ng/mL); MIC (Saccharomyces cerevisae; Table 8, 48 hours): 1 nM (≈ 0.926 ng/mL); MIC ([2]; Table 8, 48 hours): 1 nM (≈ 0.926 ng/mL); MIC (Candida albicans A26; Table 8, Candids albicans A26, 48 hours): 1 nM (≈ 0.926 ng/mL); MIC ([3]; Table 8, 48 hours): 0.5 nM (≈ 0.463 ng/mL); MIC [8]: 0.25 nM (≈ 0.232 ng/mL); MIC [9]: 0.5 nM (≈ 0.463 ng/mL); MIC (Bipolaris incurvata 2118): 0.25 nM (≈ 0.232 ng/mL); MIC (Aspergillus oryzae): 0.5 nM (≈ 0.463 ng/mL); MIC [10]: 0.5 nM (≈ 0.463 ng/mL); MIC (Rhizoctonia solani 1165): 0.0625 nM (≈ 0.0579 ng/mL); MIC [11]: 0.125 nM (≈ 0.116 ng/mL); MIC (Penicillium notatum): 0.125 nM (≈ 0.116 ng/mL); MIC [12]: 0.25 nM (≈ 0.232 ng/mL) |
| CC[C@]1(O)C[C@@H]2CN(CCc3c([nH]c4ccccc34)[C@@](C(=O)OC)(c3cc4c(cc3OC)N(C)[C@H]3[C@@](O)(C(=O)OC)[C@H](OC(C)=O)[C@]5(CC)C=CCN6CC[C@]43[C@@H]65)C2)C1 [Vinblastine] | 0.001 µM | – | – | – | – | – | – | 10 µM | 10,000 | – | – | resistant | – |
| Cc1c2oc3c(C)ccc(C(=O)N[C@@H]4C(=O)N[C@H](C(C)C)C(=O)N5CCC[C@H]5C(=O)N(C)CC(=O)N(C)[C@@H](C(C)C)C(=O)O[C@@H]4C)c3nc-2c(C(=O)N[C@@H]2C(=O)N[C@H](C(C)C)C(=O)N3CCC[C@H]3C(=O)N(C)CC(=O)N(C)[C@@H](C(C)C)C(=O)O[C@@H]2C)c(N)c1=O [actinomycin D] (I: T[dV]P[Sar][NMeV] / II: T[dV]P[Sar][NMeV]; ester I:1-I:C, II:1-II:C; linker I:N-II:N via Actinocin(9to1)) | – | – | – | – | – | – | – | – | – | – | – | resistant | – |
| COc1cc2c(c(OC)c1OC)-c1ccc(OC)c(=O)cc1[C@@H](NC(C)=O)CC2 [colchicine] | – | – | – | – | – | – | – | – | – | – | – | resistant | – |
